# Experimental data as given in PubChem BioAssay AID328 (DTP/NCI, 2004).
# Values joined by “and” are separate entries in the source; they are usually repeats but may differ in a detail not shown here. Equal values may be shown once. Toxic doses and inconclusive results are not listed.
# System: BDF1 mice, P388 leukemia ip, median survival T/C
# Test: NCI In Vivo Anticancer Drug Screen. Data for tumor model P388 Leukemia (intraperitoneal) in B6D2F1 (BDF1) mice
# Details: endpoint: median survival time, higher = longer survival
# How it was run: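 Transplantable tumour in mice; compound vs vehicle dosing; survival scored; ratio of treated to control reported.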
# [1] = dose: 50.0 mg/kg/injection, schedule: Q01DX009 (ip), vehicle: saline with Tween-80
# [2] = dose: 100.0 mg/kg/injection, schedule: Q01DX009 (ip), vehicle: saline with Tween-80
# [3] = dose: 200.0 mg/kg/injection, schedule: Q01DX009 (ip), vehicle: saline with Tween-80
# [4] = dose: 25.0 mg/kg/injection, schedule: Q01DX009 (ip), vehicle: saline with Tween-80
# [5] = dose: 50.0 mg/kg/injection, schedule: Q04DX003 (ip), vehicle: saline with Tween-80
# [6] = dose: 100.0 mg/kg/injection, schedule: Q04DX003 (ip), vehicle: saline with Tween-80
# [7] = dose: 200.0 mg/kg/injection, schedule: Q04DX003 (ip), vehicle: saline with Tween-80
# [8] = dose: 400.0 mg/kg/injection, schedule: Q04DX003 (ip), vehicle: saline with Tween-80
# [9] = dose: 50.0 mg/kg/injection, schedule: Q01DX009 (ip), vehicle: Klucel (hydroxypropylcellulose) (HPC)
# [10] = dose: 100.0 mg/kg/injection, schedule: Q01DX009 (ip), vehicle: Klucel (hydroxypropylcellulose) (HPC)
# [11] = dose: 100.0 mg/kg/injection, schedule: Q04DX003 (ip), vehicle: Klucel (hydroxypropylcellulose) (HPC)
# [12] = dose: 200.0 mg/kg/injection, schedule: Q01DX009 (ip), vehicle: Klucel (hydroxypropylcellulose) (HPC)
# [13] = dose: 200.0 mg/kg/injection, schedule: Q04DX003 (ip), vehicle: Klucel (hydroxypropylcellulose) (HPC)
# [14] = dose: 400.0 mg/kg/injection, schedule: Q04DX003 (ip), vehicle: Klucel (hydroxypropylcellulose) (HPC)
# [15] = dose: 50.0 mg/kg/injection, schedule: Q01DX009 (ip), vehicle: saline
# [16] = dose: 100.0 mg/kg/injection, schedule: Q01DX001 (ip), vehicle: Klucel (hydroxypropylcellulose) (HPC)
# [17] = dose: 200.0 mg/kg/injection, schedule: Q01DX001 (ip), vehicle: Klucel (hydroxypropylcellulose) (HPC)
# [18] = dose: 25.0 mg/kg/injection, schedule: Q01DX009 (ip), vehicle: saline
# [19] = dose: 100.0 mg/kg/injection, schedule: Q04DX003 (ip), vehicle: saline
# [20] = dose: 6.25 mg/kg/injection, schedule: Q01DX009 (ip), vehicle: saline
compound,measurement,setting,value
Cc1cc(O)c2c(c1)C(=O)C(c1c(C)cc3c(c1O)C(=O)C=CC3=O)=CC2=O,T/C,"dose: 1.25 mg/kg/injection, schedule: Q01DX009 (ip), vehicle: saline",89 % of control
same,T/C,"dose: 2.5 mg/kg/injection, schedule: Q01DX009 (ip), vehicle: saline",114 % of control
same,T/C,"dose: 5.0 mg/kg/injection, schedule: Q01DX009 (ip), vehicle: saline",102 % of control
same,T/C,"dose: 10.0 mg/kg/injection, schedule: Q01DX009 (ip), vehicle: saline",105 % of control and 116 % of control
same,T/C,"dose: 14.0 mg/kg/injection, schedule: Q01DX009 (ip), vehicle: saline",106 % of control
same,T/C,"dose: 22.0 mg/kg/injection, schedule: Q01DX009 (ip), vehicle: saline",116 % of control
same,T/C,"dose: 35.0 mg/kg/injection, schedule: Q01DX009 (ip), vehicle: saline",99 % of control
CC1SC(c2ccccc2)N(c2nccs2)C1=O (configuration not stated),T/C,[1],103 % of control
same,T/C,[2],89 % of control
same,T/C,[3],99 % of control
CCN(CC)CCCC(C)Nc1ncnc2oc(C)c(C)c12 (configuration not stated),T/C,"dose: 6.25 mg/kg/injection, schedule: Q01DX009 (ip), vehicle: saline with Tween-80",95 % of control
same,T/C,"dose: 12.5 mg/kg/injection, schedule: Q01DX009 (ip), vehicle: saline with Tween-80",100 % of control
same,T/C,[4],100 % of control
Cn1nnnc1[N-]Cc1ccccc1.[Au+].c1ccc([PH+](c2ccccc2)c2ccccc2)cc1,T/C,"dose: 12.5 mg/kg/injection, schedule: Q01DX001 (ip), vehicle: saline with Tween-80",111 % of control
same,T/C,"dose: 25.0 mg/kg/injection, schedule: Q01DX001 (ip), vehicle: saline with Tween-80",111 % of control
same,T/C,"dose: 50.0 mg/kg/injection, schedule: Q01DX001 (ip), vehicle: saline with Tween-80",123 % of control
CC1=C(C)Cc2c(c(OC(=O)c3ccccc3)cc(Cl)c2OC(=O)c2ccccc2)C1,T/C,"dose: 12.5 mg/kg/injection, schedule: Q04DX003 (ip), vehicle: saline with Tween-80",94 % of control
same,T/C,"dose: 25.0 mg/kg/injection, schedule: Q04DX003 (ip), vehicle: saline with Tween-80",94 % of control
same,T/C,[5],92 % of control
same,T/C,[6],90 % of control
same,T/C,[7],93 % of control
same,T/C,[8],94 % of control
O=[N+]([O-])c1ccc2c(c1)[nH]c1ccccc12,T/C,[1],113 % of control
same,T/C,[2],115 % of control
same,T/C,[3],114 % of control
N#C/C(=C1C=C(Br)/C(=N\O)C=C\1Cl)c1ccc(Cl)cc1,T/C,"dose: 25.0 mg/kg/injection, schedule: Q01DX009 (ip), vehicle: Klucel (hydroxypropylcellulose) (HPC)",115 % of control
same,T/C,[9],110 % of control
same,T/C,[10],115 % of control and 123 % of control
same,T/C,[11],100 % of control
same,T/C,"dose: 150.0 mg/kg/injection, schedule: Q01DX009 (ip), vehicle: Klucel (hydroxypropylcellulose) (HPC)",109 % of control
same,T/C,[12],123 % of control
same,T/C,[13],118 % of control
same,T/C,"dose: 225.0 mg/kg/injection, schedule: Q01DX009 (ip), vehicle: Klucel (hydroxypropylcellulose) (HPC)",109 % of control
same,T/C,[14],113 % of control
Cc1ccnc(NC2=CC(=O)C(=O)c3ccccc32)c1,T/C,[15],100 % of control
same,T/C,"dose: 75.0 mg/kg/injection, schedule: Q01DX009 (ip), vehicle: saline",118 % of control
same,T/C,"dose: 112.5 mg/kg/injection, schedule: Q01DX009 (ip), vehicle: saline",118 % of control
CCOC(=O)c1nnc(-c2ccccc2)c(-c2ccccc2)n1,T/C,[6],104 % of control
same,T/C,[7],96 % of control
same,T/C,[8],89 % of control
COc1cc2c(cc1OC)[C@H]1CNC[C@H]1[C@@H](c1ccccc1)C2,T/C,"dose: 95.0 mg/kg/injection, schedule: Q01DX001 (ip), vehicle: Klucel (hydroxypropylcellulose) (HPC)",100 % of control
same,T/C,[16],100 % of control and 110 % of control
same,T/C,"dose: 135.0 mg/kg/injection, schedule: Q01DX001 (ip), vehicle: Klucel (hydroxypropylcellulose) (HPC)",104 % of control
same,T/C,[17],95 % of control and 104 % of control
same,T/C,"dose: 300.0 mg/kg/injection, schedule: Q01DX001 (ip), vehicle: Klucel (hydroxypropylcellulose) (HPC)",90 % of control
COc1cc2c3cc1Oc1c(O)c(OC)cc4c1C(Cc1cc5c(c(c1)Oc1ccc(cc1)CC3N(C)CC2)OCO5)N(C)CC4 (configuration not stated),T/C,"dose: 1.25 mg/kg/injection, schedule: Q01DX010 (ip), vehicle: saline",90 % of control
same,T/C,"dose: 2.5 mg/kg/injection, schedule: Q01DX010 (ip), vehicle: saline",95 % of control
same,T/C,"dose: 5.0 mg/kg/injection, schedule: Q01DX010 (ip), vehicle: saline",90 % of control
same,T/C,"dose: 10.0 mg/kg/injection, schedule: Q01DX010 (ip), vehicle: saline",86 % of control
Cc1ccc2c(c1)N=C(Nc1ccccc1)N=S2(C)=O (configuration not stated),T/C,[4],123 % of control
same,T/C,[2],160 % of control
CC(=O)CC(C)=O.CC(=O)CC(C)=O.[NH-]C1CCCCC1.[NH-]C1CCCCC1.[Ni+2],T/C,"dose: 19.0 mg/kg/injection, schedule: Q04DX003 (ip), vehicle: saline with Tween-80",104 % of control
same,T/C,"dose: 20.0 mg/kg/injection, schedule: Q04DX003 (ip), vehicle: saline",100 % of control
same,T/C,"dose: 37.5 mg/kg/injection, schedule: Q04DX003 (ip), vehicle: saline with Tween-80",118 % of control
same,T/C,"dose: 40.0 mg/kg/injection, schedule: Q04DX003 (ip), vehicle: saline",112 % of control
O=C1COCC(=O)C1,T/C,"dose: 100.0 mg/kg/injection, schedule: Q01DX001 (ip), vehicle: saline",96 % of control
same,T/C,"dose: 200.0 mg/kg/injection, schedule: Q01DX001 (ip), vehicle: saline",107 % of control
same,T/C,"dose: 400.0 mg/kg/injection, schedule: Q01DX001 (ip), vehicle: saline",100 % of control
CCOC(=O)c1ccc(NC(=O)Nc2c(C)n(C)n(-c3ccccc3)c2=O)cc1,T/C,[9],100 % of control
same,T/C,[10],100 % of control
same,T/C,[12],90 % of control
O=S(=O)(Cc1ccccc1)C(Cl)(Cl)c1ccccc1,T/C,[5],100 % of control
same,T/C,[6],104 % of control
same,T/C,[7],109 % of control
c1ccc(Nc2n[n+](-c3ccccc3)no2)cc1,T/C,[4],105 % of control
same,T/C,[1],101 % of control
same,T/C,[2],101 % of control and 104 % of control
same,T/C,[6],107 % of control
same,T/C,[3],88 % of control
same,T/C,[7],106 % of control
same,T/C,[8],102 % of control
CC1CCCCN1CCCO (configuration not stated),T/C,[18],104 % of control
same,T/C,[15],108 % of control
same,T/C,"dose: 50.0 mg/kg/injection, schedule: Q04DX003 (ip), vehicle: saline",92 % of control
same,T/C,"dose: 100.0 mg/kg/injection, schedule: Q01DX009 (ip), vehicle: saline",112 % of control
same,T/C,[19],96 % of control
CC1CCC[N-]C1.CC1CCC[N-]C1.[Cl][Pt+2]([Cl])([Cl])[Cl] (configuration not stated),T/C,"dose: 3.12 mg/kg/injection, schedule: Q01DX009 (ip), vehicle: saline",150 % of control and 154 % of control
same,T/C,[20],172 % of control
same,T/C,"dose: 8.2 mg/kg/injection, schedule: Q01DX009 (ip), vehicle: saline",161 % of control
same,T/C,[18],154 % of control
Brc1ccc(C#Cc2ccccc2)cc1,T/C,[16],104 % of control
same,T/C,[17],108 % of control
same,T/C,"dose: 400.0 mg/kg/injection, schedule: Q01DX001 (ip), vehicle: Klucel (hydroxypropylcellulose) (HPC)",108 % of control
CCCCN1C(=O)C/C(=C2\CC(=O)N(CCCC)C2=O)C1=O,T/C,[11],116 % of control
same,T/C,[13],95 % of control
same,T/C,[14],95 % of control
Oc1ccccc1C1N=NC2=C(CCCC2)N1O (configuration not stated),T/C,[9],99 % of control
same,T/C,[10],93 % of control
Cc1ccc(NCCN(C)C)c2c(=O)c3ccccc3sc12,T/C,[20],96 % of control
same,T/C,"dose: 12.0 mg/kg/injection, schedule: Q04DX003 (ip), vehicle: saline",105 % of control
same,T/C,"dose: 12.5 mg/kg/injection, schedule: Q01DX009 (ip), vehicle: saline",103 % of control
same,T/C,"dose: 19.0 mg/kg/injection, schedule: Q04DX003 (ip), vehicle: saline",120 % of control
same,T/C,[18],107 % of control
same,T/C,"dose: 100.0 mg/kg/injection, schedule: Q04DX003 (ip), vehicle: alcohol",155 % of control
same,T/C,[19],168 % of control and 170 % of control
same,T/C,"dose: 150.0 mg/kg/injection, schedule: Q04DX003 (ip), vehicle: saline",205 % of control
same,T/C,"dose: 200.0 mg/kg/injection, schedule: Q04DX003 (ip), vehicle: alcohol",100 % of control
